Usually Km stands for the substrate concentration at which the rate is half of its maximum.

Results on one compound are retold here after article PMC3867539 (Angewandte Chemie (International ed. in English), 2013).

Bounds are passed on as bounds.

One assay deals with CYP71A13 (Arabidopsis thaliana, UniProt O49342). Particulars: estimate only, not a measured constant; Cys as thiol donor.
The target of the next assay is CYP71A12 (Arabidopsis thaliana, UniProt O49340). The note with it: estimate only, not a measured constant; Cys as thiol donor.
Chain of CYP71A12 (O49340 whole entry): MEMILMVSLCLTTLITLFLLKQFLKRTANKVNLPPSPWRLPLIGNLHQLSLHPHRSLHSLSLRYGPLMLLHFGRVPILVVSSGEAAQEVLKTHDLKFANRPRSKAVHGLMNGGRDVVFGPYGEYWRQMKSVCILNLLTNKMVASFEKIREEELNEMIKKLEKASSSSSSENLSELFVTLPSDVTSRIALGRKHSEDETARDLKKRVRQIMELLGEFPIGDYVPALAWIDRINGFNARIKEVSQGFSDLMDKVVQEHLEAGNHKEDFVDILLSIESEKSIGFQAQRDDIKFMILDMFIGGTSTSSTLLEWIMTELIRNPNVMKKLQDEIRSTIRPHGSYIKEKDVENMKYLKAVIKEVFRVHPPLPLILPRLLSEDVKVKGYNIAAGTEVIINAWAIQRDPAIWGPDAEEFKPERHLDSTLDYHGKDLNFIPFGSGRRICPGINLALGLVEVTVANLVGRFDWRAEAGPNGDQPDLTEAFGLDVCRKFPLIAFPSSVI

Chain of CYP71A13 (O49342 whole entry): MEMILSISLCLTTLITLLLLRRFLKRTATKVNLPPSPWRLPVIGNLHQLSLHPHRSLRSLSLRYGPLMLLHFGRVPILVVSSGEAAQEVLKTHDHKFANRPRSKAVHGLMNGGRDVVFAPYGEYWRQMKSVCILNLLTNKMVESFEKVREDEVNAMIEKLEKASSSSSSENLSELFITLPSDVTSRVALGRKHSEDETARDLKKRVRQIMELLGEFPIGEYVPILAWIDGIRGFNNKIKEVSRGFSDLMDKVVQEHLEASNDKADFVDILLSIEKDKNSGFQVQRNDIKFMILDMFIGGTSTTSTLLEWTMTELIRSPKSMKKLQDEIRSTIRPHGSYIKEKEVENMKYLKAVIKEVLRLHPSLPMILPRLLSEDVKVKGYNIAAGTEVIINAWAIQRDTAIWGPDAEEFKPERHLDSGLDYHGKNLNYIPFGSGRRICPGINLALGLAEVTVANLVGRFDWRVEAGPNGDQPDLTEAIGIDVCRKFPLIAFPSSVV

On to `N#CCc1c[nH]c2ccccc12` [IAN], for which the Michaelis-Menten constant (Km) at CYP71A13 and at CYP71A12 was greater than 100 µM throughout.
